Legend:
[1] = test system: Salmonella typhimurium (TA98, TA100, TA1535 and TA1537); test: Bacterial mutation test in Salmonella typhimurium; type: cell-based; settings: up to 5000 μg/plate, absence and presence of rat liver S-9
Method: These conditions included treatments at concentrations up to 5000 μg/plate (the maximum recommended concentration according to current regulatory guidelines), in the absence and in the presence of a rat liver metabolic activation system (S-9).

[2] = test system: patients with treatment-resistant major depressive disorder (TRD); test: Phase 1/2 clinical trial of inhaled 5-MeO-DMT in TRD; settings: for Patients with at least one ADR: Part A, n=4, all mild, resolved spontaneously
Method: Patients were assigned to different groups. In the context of the present invention, the group who received a single, 12 mg dose and the group who underwent an intra-day individualized dosing regimen (IDR) that allowed for multiple, escalating doses (6 mg, 12 mg and 18 mg) within a single day, driven by the intensity of the patient-reported psychedelic experience are of interest.
The data gathered include the assessment of the treated patients against several scales including the Montgomery-Asberg Depression Rating Scale (MADRS) and the Brief Psychiatric Rating Scale (BPRS).
The MADRS item that is of particular relevance to impaired concentration and memory is “concentration difficulties”. This item represents difficulties in collecting one's thoughts mounting to incapacitating lack of concentration and is scored on a scale ranging from 0 to 6. The score is 0 if the patient has no difficulties in concentrating. The score is 2 in case of occasional difficulties in collecting one's thoughts. A score of 4 is assigned in case of difficulties in concentrating and sustaining thought which reduces ability to read or hold a conversation. The score is 6 if the patient is unable to read or converse without great difficulty.
The MADRS item “reduced sleep” represents the experience of reduced duration or depth of sleep compared to the subject's own normal pattern when well. A score of 0 is assigned when the subject sleeps as usual. […] A score of 4 means that sleep is reduced or broken by at least two hours. A score of 6 means less than two or three hours sleep.
This trial was designed in two parts. Part A was an open-label, single-arm, single-dose Phase 1 trial with two dose levels (12 mg (n=4) and 18 mg (n=4)). […] The primary endpoint of Part B was to assess the effects on the severity of depression, as assessed by the proportion of patients in remission on day seven after dosing, defined as a MADRS total score of less than or equal to 10.

[3] = Pharmacokinetics of 5-MeO-DMT and bufotenine after inhalation; type: in vivo, human; settings: 3 hours after inhalation, whole dose range (6 mg, 12 mg, 18 mg)
Method: Blood samples were obtained at 1; 2; 4; 7; 10; 15; 20; 30; 45 min and 1; 1.5; 2; 3; 4 hours after administration. […] PK parameters were generated by algebraic analysis of the concentration versus time plots for each individual. The analysis was carried out using the software Phoenix WinNonlin 6.3.

[4] = 12 mg n=4, sum of patient scores, 2 hours after dose, baseline 16
[5] = 12 mg n=4, sum of patient scores, day 1, baseline 13
[6] = 12 mg n=4, sum of patient scores, day 1, baseline 16
[7] = 12 mg n=4, sum of patient scores, day 7, baseline 12
[8] = 12 mg n=4, sum of patient scores, day 7, baseline 13
[9] = 12 mg n=4, sum of patient scores, day 7, baseline 16
[10] = IDR n=8, sum of patient scores, day 1, baseline 25
[11] = IDR n=8, sum of patient scores, day 7, baseline 25
[12] = IDR n=8, sum of patient scores, day 7, baseline 30

With `COc1ccc2[nH]cc(CCN(C)C)c2c1` [5-MeO-DMT] the Mutation induction [1] was “did not induce mutation”, the “MADRS Suicidal Thoughts improvement” value ([2]; 12 mg n=4, sum of patient scores, 2 hours after dose, baseline 8) was 5 and the “MADRS Inner Tension improvement” value ([2]; 12 mg n=4, sum of patient scores, 2 hours after dose, baseline 13) was 11. For the same compound, the “MADRS Concentration Difficulties improvement” value [2, 4] was 9, the “MADRS Inability to Feel improvement” value [2, 4] was 7 and the “MADRS Lassitude improvement” value [2, 4] was 6. For the same compound, the “MADRS Pessimistic Thoughts improvement” value [2, 4] was 8, the “BPRS Blunted Affect improvement” value ([2]; 12 mg n=4, sum of patient scores, 3 hours after dose, baseline 11) was 3 and the “BPRS Emotional Withdrawal improvement” value ([2]; 12 mg n=4, sum of patient scores, 3 hours after dose, baseline 13) was 2. For the same compound, the “BPRS Tension improvement” value ([2]; 12 mg n=4, sum of patient scores, 3 hours after dose, baseline 14) was 5, the “BPRS Guilt Feelings improvement” value ([2]; 12 mg n=4, sum of patient scores, 3 hours after dose, baseline 18) was 9 and the “BPRS Anxiety improvement” value ([2]; 12 mg n=4, sum of patient scores, 3 hours after dose, baseline 25) was 14. For the same compound, the “MADRS Suicidal Thoughts improvement” value ([2]; 12 mg n=4, sum of patient scores, day 1, baseline 8) was 3, the “BPRS Blunted Affect improvement” value ([2]; 12 mg n=4, sum of patient scores, day 1, baseline 11) was 5 and the “MADRS Reduced Sleep improvement” value ([2]; 12 mg n=4, sum of patient scores, day 1, baseline 12) was 2. For the same compound, the “BPRS Emotional Withdrawal improvement” value [2, 5] was 5, the “MADRS Inner Tension improvement” value [2, 5] was 10 and the “BPRS Tension improvement” value ([2]; 12 mg n=4, sum of patient scores, day 1, baseline 14) was 8. The “MADRS Concentration Difficulties improvement” value [2, 6] was 14, the “MADRS Inability to Feel improvement” value [2, 6] was 15 and the “MADRS Lassitude improvement” value [2, 6] was 16. For the same compound, the “MADRS Pessimistic Thoughts improvement” value [2, 6] was 9, the “BPRS Guilt Feelings improvement” value ([2]; 12 mg n=4, sum of patient scores, day 1, baseline 18) was 13 and the “BPRS Anxiety improvement” value ([2]; 12 mg n=4, sum of patient scores, day 1, baseline 25) was 19. For the same compound, the “MADRS Suicidal Thoughts improvement” value ([2]; 12 mg n=4, sum of patient scores, day 7, baseline 8) was 1, the “BPRS Blunted Affect improvement” value ([2]; 12 mg n=4, sum of patient scores, day 7, baseline 11) was 6 and the “MADRS Reduced Sleep improvement” value [2, 7] was 6. For the same compound, the “MADRS Reduced Sleep percentage improvement” value [2, 7] was 50.00%, the “BPRS Emotional Withdrawal improvement” value [2, 8] was 7 and the “MADRS Inner Tension improvement” value [2, 8] was 8. For the same compound, the “BPRS Tension improvement” value ([2]; 12 mg n=4, sum of patient scores, day 7, baseline 14) was 8, the “MADRS Concentration Difficulties improvement” value [2, 9] was 13 and the “MADRS Inability to Feel improvement” value [2, 9] was 15. For the same compound, the “MADRS Lassitude improvement” value [2, 9] was 13, the “MADRS Pessimistic Thoughts improvement” value [2, 9] was 8 and the “BPRS Guilt Feelings improvement” value ([2]; 12 mg n=4, sum of patient scores, day 7, baseline 18) was 13. For the same compound, the “BPRS Anxiety improvement” value ([2]; 12 mg n=4, sum of patient scores, day 7, baseline 25) was 19, the “MADRS Suicidal Thoughts improvement” value ([2]; IDR n=8, sum of patient scores, 2 hours after last dose, baseline 11) was 8 and the “MADRS Inner Tension improvement” value ([2]; IDR n=8, sum of patient scores, 2 hours after last dose, baseline 26) was 15. The “MADRS Lassitude improvement” value ([2]; IDR n=8, sum of patient scores, 2 hours after last dose, baseline 27) was 17, the “MADRS Pessimistic Thoughts improvement” value ([2]; IDR n=8, sum of patient scores, 2 hours after last dose, baseline 28) was 21 and the “MADRS Concentration Difficulties improvement” value ([2]; IDR n=8, sum of patient scores, 2 hours after last dose, baseline 30) was 19. For the same compound, the “MADRS Inability to Feel improvement” value ([2]; IDR n=8, sum of patient scores, 2 hours after last dose, baseline 36) was 24, the “BPRS Emotional Withdrawal improvement” value ([2]; IDR n=8, sum of patient scores, 3 hours after last dose, baseline 13) was 5 and the “BPRS Blunted Affect improvement” value ([2]; IDR n=8, sum of patient scores, 3 hours after last dose, baseline 15) was 4. For the same compound, the “BPRS Tension improvement” value ([2]; IDR n=8, sum of patient scores, 3 hours after last dose, baseline 16) was 5, the “BPRS Guilt Feelings improvement” value ([2]; IDR n=8, sum of patient scores, 3 hours after last dose, baseline 34) was 20 and the “BPRS Anxiety improvement” value ([2]; IDR n=8, sum of patient scores, 3 hours after last dose, baseline 37) was 18. For the same compound, the “MADRS Suicidal Thoughts improvement” value ([2]; IDR n=8, sum of patient scores, day 1, baseline 11) was 10, the “BPRS Emotional Withdrawal improvement” value ([2]; IDR n=8, sum of patient scores, day 1, baseline 13) was 5 and the “BPRS Blunted Affect improvement” value ([2]; IDR n=8, sum of patient scores, day 1, baseline 15) was 7. For the same compound, the “BPRS Tension improvement” value ([2]; IDR n=8, sum of patient scores, day 1, baseline 16) was 5, the “MADRS Reduced Sleep improvement” value [2, 10] was 13 and the “MADRS Reduced Sleep percentage improvement” value [2, 10] was 52.00%. For the same compound, the “MADRS Inner Tension improvement” value ([2]; IDR n=8, sum of patient scores, day 1, baseline 26) was 20, the “MADRS Lassitude improvement” value ([2]; IDR n=8, sum of patient scores, day 1, baseline 27) was 22 and the “MADRS Pessimistic Thoughts improvement” value ([2]; IDR n=8, sum of patient scores, day 1, baseline 28) was 24. The “MADRS Concentration Difficulties improvement” value ([2]; IDR n=8, sum of patient scores, day 1, baseline 30) was 29, the “BPRS Guilt Feelings improvement” value ([2]; IDR n=8, sum of patient scores, day 1, baseline 34) was 23 and the “MADRS Inability to Feel improvement” value ([2]; IDR n=8, sum of patient scores, day 1, baseline 36) was 34. The “BPRS Anxiety improvement” value ([2]; IDR n=8, sum of patient scores, day 1, baseline 37) was 21, the “MADRS Suicidal Thoughts improvement” value ([2]; IDR n=8, sum of patient scores, day 7, baseline 11) was 8 and the “BPRS Emotional Withdrawal improvement” value ([2]; IDR n=8, sum of patient scores, day 7, baseline 13) was 5. The “BPRS Blunted Affect improvement” value ([2]; IDR n=8, sum of patient scores, day 7, baseline 15) was 7, the “BPRS Tension improvement” value ([2]; IDR n=8, sum of patient scores, day 7, baseline 16) was 6 and the “MADRS Reduced Sleep improvement” value [2, 11] was 16. The “MADRS Reduced Sleep percentage improvement” value [2, 11] was 64.00%, the “MADRS Inner Tension improvement” value ([2]; IDR n=8, sum of patient scores, day 7, baseline 26) was 14 and the “MADRS Lassitude improvement” value ([2]; IDR n=8, sum of patient scores, day 7, baseline 27) was 24. For the same compound, the “MADRS Pessimistic Thoughts improvement” value ([2]; IDR n=8, sum of patient scores, day 7, baseline 28) was 25, the “MADRS Concentration Difficulties improvement” value [2, 12] was 21 and the “MADRS Concentration Difficulties percentage improvement” value [2, 12] was 70.00%. For the same compound, the “BPRS Guilt Feelings improvement” value ([2]; IDR n=8, sum of patient scores, day 7, baseline 34) was 24, the “MADRS Inability to Feel improvement” value ([2]; IDR n=8, sum of patient scores, day 7, baseline 36) was 30 and the “BPRS Anxiety improvement” value ([2]; IDR n=8, sum of patient scores, day 7, baseline 37) was 20. For the same compound, the SAEs ([2]; Part A (12 mg and 18 mg)) was “No SAEs were reported”, the “Patients with at least one ADR” value ([2]; 12 mg single dose) was 3 of 4 and the “Patients with at least one ADR” value ([2]; 18 mg single dose) was 3 of 4. For the same compound, the “Detectability in the plasma” value [3] was “no longer detectable”.
